Assay results from PubChem BioAssay AID1996.
Converted amounts (≈) assume the structure as drawn.

conditions: buffer; pH 7.4; 200.0 µM

`Cc1ccc(S(=O)(=O)N2CCN(C(=O)C3CCCO3)CC2)cc1` (stereo not given) and `Cc1ccc(S(=O)(=O)N2CCN(C(=O)CC(C)C)CC2)cc1` cannot be ordered by solubility kinetic: 49.8 µg/mL (≈ 147 µM) for the first, over 48.7 µg/mL for the second.

Compared with `COc1ccccc1C(=O)NCCSCc1ccccc1Cl`, `COc1ccc(NC(=O)NCCCCc2ccccc2)cc1OC` is 25-fold lower in solubility kinetic: 15.1 µg/mL (≈ 45 µM) for the first, 0.6 µg/mL (≈ 1.83 µM) for the second.

First: CN(C)c1ccc(/C=C/c2nc3ccccc3c(=O)[nH]2)cc1
Second: CN(C)c1ccc(Nc2cc(Cl)ncn2)cc1
The solubility kinetic of the first is 15-fold lower: 0.6 µg/mL (≈ 2.06 µM) for the first, 9 µg/mL (≈ 36.2 µM) for the second.

Going from `O=C(NCCc1ccccc1)c1coc(=O)c(Br)c1` to `O=C(NCCc1ccccc1)C1CCN(C(=O)c2ccc(F)cc2)CC1`, the solubility kinetic rises from 9.8 µg/mL (≈ 30.4 µM) to 47.4 µg/mL (≈ 134 µM) (4.8-fold).

Compared with `CCN(c1ccccc1)S(=O)(=O)c1ccc(N2CCN(c3ccc(O)cc3)CC2)nc1`, `CN1CCN(CC(=O)N2c3ccccc3Sc3ccccc32)CC1` is higher in solubility kinetic: 2.7 µg/mL (≈ 6.16 µM) for the first, over 50.9 µg/mL for the second.

`O=C(CSc1cccc[n+]1[O-])NC1CCCCC1` and `O=C(CS(=O)(=O)c1ccccc1)NC1CCCCC1` cannot be ordered by solubility kinetic: over 40 µg/mL for the first, over 42.2 µg/mL for the second.

First: Cc1cc(C(C)(C)C)cc(S(=O)(=O)Nc2ccc(C(=O)O)cc2)c1C
Second: CC(=O)Nc1ccc(N/C=C/C(=O)c2ccc(C)cc2)cc1
The solubility kinetic of the first is 13-fold higher: 40.8 µg/mL (≈ 113 µM) for the first, 3.2 µg/mL (≈ 10.9 µM) for the second.

First: COc1ccccc1N1C(=O)CC(=O)NC1=O
Second: CC1(c2ccccc2)NC(=O)N(CC(=O)N2CC(=O)Nc3ccccc32)C1=O (stereo not given)
The solubility kinetic of the first is higher: over 35.1 µg/mL for the first, 23.2 µg/mL (≈ 61.3 µM) for the second.

First: Cc1ccc(NC(=O)NCCCCc2ccccc2)cc1
Second: O=C(Nc1ccc(F)cc1)Nc1csc2ccccc12
The solubility kinetic of the first is lower: under 0.3 µg/mL for the first, 0.5 µg/mL (≈ 1.75 µM) for the second.

Going from `CCOC(=O)C1CCCN(CC(=O)Nc2cc(C)cc(C)c2)C1` (stereo not given) to `Cc1ccc(C(=O)C2CCN(CC(=O)Nc3ccccc3C)CC2)cc1`, the solubility kinetic falls from 29.3 µg/mL (≈ 92 µM) to 1.7 µg/mL (≈ 4.85 µM) (17-fold).

First: CCc1ccnc(NC(=O)NS(=O)(=O)c2ccc(C)cc2)c1
Second: CN(CC(=O)Nc1cccnc1Cl)S(=O)(=O)c1ccc(Cl)cc1
The solubility kinetic of the first is 1.9-fold higher: 47.6 µg/mL (≈ 149 µM) for the first, 24.9 µg/mL (≈ 66.5 µM) for the second.

First: CNS(=O)(=O)c1ccc(NC(=O)Nc2ccc3c(c2)OCO3)cc1
Second: COc1ccc(NC2CC(=O)N(c3cccc([N+](=O)[O-])c3)C2=O)cc1 (stereo not given)
The solubility kinetic of the first is lower: 15.6 µg/mL (≈ 44.7 µM) for the first, over 51.2 µg/mL for the second.

`Cn1cc(C(=O)N2CCCCC2)c2ccccc21` and `CCOc1ccccc1NC(=S)N1CCCCCC1` cannot be ordered by solubility kinetic: over 36.3 µg/mL for the first, over 41.8 µg/mL for the second.

Compared with `O=C(COC(=O)c1ccccc1)NC1CCCCCC1`, `O=C(c1ccc(NC(=O)C2(c3ccccc3)CCCC2)cc1)N1CCOCC1` is higher in solubility kinetic: 39.7 µg/mL (≈ 144 µM) for the first, over 56.8 µg/mL for the second.

First: O=C(c1ccc2nc[nH]c2c1)N1CCc2ccccc2C1
Second: Fc1ccc(NC(=S)N2CCc3ccccc3C2)c(F)c1
The solubility kinetic of the first is higher: over 41.6 µg/mL for the first, 37.3 µg/mL (≈ 123 µM) for the second.

Going from `Cc1ccc(CONC(=O)c2ccc(OC(F)F)cc2)cc1` to `Cc1ccc(C(OC(=O)c2ccco2)C(=O)NC(C)(C)C)cc1` (stereo not given), the solubility kinetic rises from 9.5 µg/mL (≈ 30.9 µM) to 17 µg/mL (≈ 53.9 µM) (1.8-fold).

Going from `CCC1(C)Cc2ccccc2-c2nc[nH]c(=O)c21` (stereo not given) to `O=C1c2ccccc2NC(c2ccc(Br)s2)N1O` (stereo not given), the solubility kinetic rises from 2.8 µg/mL (≈ 11.7 µM) to 37.5 µg/mL (≈ 115 µM) (13-fold).

First: C=COCCCNc1ncnc2sc(-c3ccccc3)cc12
Second: CCc1cc2c(N[C@@H](Cc3ccccc3)C(=O)O)ncnc2s1
The solubility kinetic of the first is lower: 1.4 µg/mL (≈ 4.5 µM) for the first, over 49.1 µg/mL for the second.

Going from `CCOc1ccc2nc(NC(=O)C3(C)CC3(Br)Br)sc2c1` (stereo not given) to `CCOc1ccc(C2(C)NC(=O)N(CCN(C)C)C2=O)cc1` (stereo not given), the solubility kinetic rises from 8.4 µg/mL (≈ 19.3 µM) to 38.1 µg/mL (≈ 125 µM) (4.5-fold).

Going from `Cc1cc(NC(=O)Cn2c(=O)oc3ccc(Cl)cc32)no1` to `O=C(Cn1c(=O)oc2ccccc21)Nc1ccccc1Cl`, the solubility kinetic rises from 1.5 µg/mL (≈ 4.87 µM) to 6.8 µg/mL (≈ 22.5 µM) (4.5-fold).

`CCCCOc1ccc(C(=O)NN2CCOCC2)cc1` and `O=C(CN1CCOCC1)NNC(=O)c1ccc([N+](=O)[O-])cc1` cannot be ordered by solubility kinetic: over 41.8 µg/mL for the first, over 46.2 µg/mL for the second.

Going from `CCN(CC)C(=O)COCc1cc(-c2ccc3c(c2)OCO3)on1` to `CCCc1cc(=O)oc2cc(OCC(=O)N3CCOCC3)c(Cl)cc12`, the solubility kinetic falls from over 49.9 µg/mL to 3.8 µg/mL (≈ 10.4 µM).

Going from `O=C(O)CCN=Cc1c(O)c2ccccc2oc1=O` to `Cc1ccc(Nc2nc(NCCO)c3ccccc3n2)cc1C.Cl`, the solubility kinetic falls from over 39.2 µg/mL to 30.9 µg/mL.

`O=C(Nc1cccc(C(=O)N2CCCc3ccccc32)c1)c1ccccc1` and `CN(C)c1cccc(C(=O)NC2CCCc3ccccc32)c1` (stereo not given) are within 1.5-fold of each other in solubility kinetic: 17.2 µg/mL (≈ 48.3 µM) for the first, 11.6 µg/mL (≈ 39.4 µM) for the second.

First: CCC1C(=NO)C(CC)C(c2ccccc2)NC1c1ccccc1 (stereo not given)
Second: CN(Cc1ccccc1)C(=O)COC(=O)COc1ccc(Cl)cc1
The solubility kinetic of the first is 3.2-fold lower: 0.9 µg/mL (≈ 2.79 µM) for the first, 2.9 µg/mL (≈ 8.34 µM) for the second.

First: N#C/C(=C\c1ccc[nH]1)C(=O)Nc1ccccc1Cl
Second: O=C(Nc1cnccn1)c1ccc(F)cc1Cl
The solubility kinetic of the first is lower: under 0.2 µg/mL for the first, over 37.7 µg/mL for the second.

Going from `CC1(C)Cc2nc(NC3CCCCC3)c(C#N)cc2CO1` to `CSc1cccc(NC(=S)N2CCC(N(C)C3CCCC3)CC2)c1`, the solubility kinetic rises from 1.7 µg/mL (≈ 5.96 µM) to over 54.5 µg/mL.

Compared with `CC(=O)Nc1c2c(nn1-c1cccc(Cl)c1)CS(=O)(=O)C2`, `CS(=O)(=O)N1CCC(C(=O)Nc2ccc(Cl)cc2)CC1` is lower in solubility kinetic: over 48.9 µg/mL for the first, 13.4 µg/mL (≈ 42.3 µM) for the second.

Compared with `O=S(=O)(c1ccc(Cl)cc1)N1CCCCCC1`, `COc1ccc(S(=O)(=O)NCCCn2ccnc2)cc1Cl` is higher in solubility kinetic: 11.4 µg/mL (≈ 41.6 µM) for the first, over 49.5 µg/mL for the second.

Compared with `CC1CCC(NCCNC(=O)c2ccco2)CC1` (stereo not given), `CC(C)(C)c1csc(NC(=O)c2ccc(Br)o2)n1` is 1.7-fold lower in solubility kinetic: 26.7 µg/mL (≈ 107 µM) for the first, 16 µg/mL (≈ 48.6 µM) for the second.
